According to PubChem BioAssay (NCI):
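How tested: cells in 96-well plates exposed to compound for 48 hours at five concentrations. Here, GI50 denotes the concentration required for 50% inhibition of growth. TGI denotes the concentration required for complete inhibition of growth.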

Assays:
Experiment in all cases: NCI tumour cell line growth inhibition, 48 h
A498 renal = system: A498 renal
A549 NSCLC = system: A549 NSCLC
ACHN renal = system: ACHN renal
BT-549 breast = system: BT-549 breast
CAKI-1 renal = system: CAKI-1 renal
CCRF-CEM leukemia = system: CCRF-CEM leukemia
COLO 205 colon = system: COLO 205 colon
DU-145 prostate = system: DU-145 prostate
HL-60(TB) leukemia = system: HL-60(TB) leukemia
HOP-92 NSCLC = system: HOP-92 NSCLC
HS 578T breast = system: HS 578T breast
K-562 leukemia = system: K-562 leukemia
MDA-MB-435 = system: MDA-MB-435
MOLT-4 leukemia = system: MOLT-4 leukemia
NCI-H522 lung = system: NCI-H522 lung
OVCAR-3 ovarian = system: OVCAR-3 ovarian
OVCAR-4 ovarian = system: OVCAR-4 ovarian
OVCAR-5 ovarian = system: OVCAR-5 ovarian
OVCAR-8 ovarian = system: OVCAR-8 ovarian
PC-3 prostate = system: PC-3 prostate
RXF 393 renal = system: RXF 393 renal
SF-268 CNS = system: SF-268 CNS
SF-295 CNS = system: SF-295 CNS
SK-MEL-2 melanoma = system: SK-MEL-2 melanoma
SK-MEL-28 melanoma = system: SK-MEL-28 melanoma
SK-OV-3 ovarian = system: SK-OV-3 ovarian
SNB-75 CNS = system: SNB-75 CNS
SR leukemia = system: SR leukemia
TK-10 renal = system: TK-10 renal
UACC-257 melanoma = system: UACC-257 melanoma
UACC-62 melanoma = system: UACC-62 melanoma
UO-31 renal = system: UO-31 renal
786-0 renal = system: 786-0 renal
EKVX NSCLC = system: EKVX NSCLC
HCC-2998 colon = system: HCC-2998 colon
HCT-116 colon = system: HCT-116 colon
HCT-15 colon = system: HCT-15 colon
HOP-62 NSCLC = system: HOP-62 NSCLC
HT29 colon = system: HT29 colon
IGROV1 ovarian = system: IGROV1 ovarian
KM12 colon = system: KM12 colon
LOX IMVI melanoma = system: LOX IMVI melanoma
M14 melanoma = system: M14 melanoma
MALME-3M melanoma = system: MALME-3M melanoma
MCF7 breast = system: MCF7 breast
NCI-H226 lung = system: NCI-H226 lung
NCI-H460 lung = system: NCI-H460 lung
NCI/ADR-RES ovarian = system: NCI/ADR-RES ovarian
RPMI-8226 leukemia = system: RPMI-8226 leukemia
SF-539 CNS = system: SF-539 CNS
SK-MEL-5 melanoma = system: SK-MEL-5 melanoma
SN12C renal = system: SN12C renal
SNB-19 CNS = system: SNB-19 CNS
SW-620 colon = system: SW-620 colon
U251 CNS = system: U251 CNS

## CC(C)=CCC[C@](C)(O)[C@H]1CC[C@]2(C)[C@@H]1CC[C@@H]1[C@@]3(C)CC[C@H](N)C(C)(C)[C@@H]3CC[C@]12C
A498 renal
  GI50: 1.88 µM
  TGI: 3.55 µM
A549 NSCLC
  GI50: 1.87 µM
  TGI: 3.77 µM
ACHN renal
  GI50: 1.78 µM
  TGI: 3.16 µM
BT-549 breast
  GI50: 14.3 µM
  TGI: 55.8 µM
CAKI-1 renal
  GI50: 1.85 µM
  TGI: 3.38 µM
CCRF-CEM leukemia
  GI50: 3.02 µM
  TGI: > 100 µM
COLO 205 colon
  GI50: 1.9 µM
  TGI: 3.68 µM
DU-145 prostate
  GI50: 1.92 µM
  TGI: 3.63 µM
HL-60(TB) leukemia
  GI50: 1.87 µM
  TGI: 3.9 µM
HOP-92 NSCLC
  GI50: 1.76 µM
  TGI: 5.46 µM
HS 578T breast
  GI50: 2.21 µM
  TGI: 5.01 µM
K-562 leukemia
  GI50: 1.97 µM
  TGI: 5.71 µM
MDA-MB-435
  GI50: 1.87 µM
  TGI: 3.52 µM
MOLT-4 leukemia
  GI50: 2.1 µM
  TGI: 4.98 µM
NCI-H522 lung
  GI50: 1.97 µM
  TGI: 4.28 µM
OVCAR-3 ovarian
  GI50: 1.77 µM
  TGI: 3.27 µM
OVCAR-4 ovarian
  GI50: 2.19 µM
  TGI: 5.74 µM
OVCAR-5 ovarian
  GI50: 1.64 µM
  TGI: 3.09 µM
OVCAR-8 ovarian
  GI50: 2.18 µM
  TGI: 4.96 µM
PC-3 prostate
  GI50: 1.98 µM
  TGI: 4.23 µM
RXF 393 renal
  GI50: 1.49 µM
  TGI: 2.85 µM
SF-268 CNS
  GI50: 4.19 µM
  TGI: 21.8 µM
SF-295 CNS
  GI50: 1.81 µM
  TGI: 3.39 µM
SK-MEL-2 melanoma
  GI50: 2.02 µM
  TGI: 4.05 µM
SK-MEL-28 melanoma
  GI50: 1.8 µM
  TGI: 3.35 µM
SK-OV-3 ovarian
  GI50: 3.23 µM
  TGI: 10.9 µM
SNB-75 CNS
  GI50: 10.5 µM
  TGI: 26.4 µM
SR leukemia
  GI50: 1.17 µM
  TGI: 3.58 µM
TK-10 renal
  GI50: 6.01 µM
  TGI: 21.1 µM
UACC-257 melanoma
  GI50: 2.06 µM
  TGI: 4.47 µM
UACC-62 melanoma
  GI50: 1.66 µM
  TGI: 3.21 µM
UO-31 renal
  GI50: 1.54 µM
  TGI: 2.9 µM

## Cc1cccc(N2CCN(C3=C(Cl)C(=O)c4ncccc4C3=O)CC2)c1
786-0 renal
  GI50: 2.33 µM
  TGI: 5.36 µM
A498 renal
  GI50: 13.1 µM
  TGI: 26.5 µM
A549 NSCLC
  GI50: 15.7 µM
  TGI: 36 µM
ACHN renal
  GI50: 1.72 µM
  TGI: 3.51 µM
BT-549 breast
  GI50: 3.61 µM
  TGI: 9.58 µM
CAKI-1 renal
  GI50: 2.86 µM
  TGI: 11.6 µM
CCRF-CEM leukemia
  GI50: 2.03 µM
  TGI: 5.79 µM
COLO 205 colon
  GI50: 1.94 µM
  TGI: 3.79 µM
DU-145 prostate
  GI50: 6.86 µM
  TGI: 26.3 µM
EKVX NSCLC
  GI50: 1.78 µM
  TGI: 3.34 µM
HCC-2998 colon
  GI50: 8.53 µM
  TGI: 22.1 µM
HCT-116 colon
  GI50: 1.67 µM
  TGI: 3.07 µM
HCT-15 colon
  GI50: 1.71 µM
  TGI: 4.05 µM
HL-60(TB) leukemia
  GI50: 1.27 µM
  TGI: 3.82 µM
HOP-62 NSCLC
  GI50: 17 µM
  TGI: 31 µM
HOP-92 NSCLC
  GI50: 1.48 µM
  TGI: 2.86 µM
HS 578T breast
  GI50: 5.74 µM
  TGI: 38.5 µM
HT29 colon
  GI50: 6.09 µM
  TGI: 21 µM
IGROV1 ovarian
  GI50: 2.53 µM
  TGI: 6.58 µM
K-562 leukemia
  GI50: 1.8 µM
  TGI: 5.31 µM
KM12 colon
  GI50: 19 µM
  TGI: 36.4 µM
LOX IMVI melanoma
  GI50: 1.57 µM
  TGI: 3.02 µM
M14 melanoma
  GI50: 2.69 µM
  TGI: 9.36 µM
MALME-3M melanoma
  GI50: 1.83 µM
  TGI: 3.77 µM
MCF7 breast
  GI50: 1.63 µM
  TGI: 3.75 µM
MDA-MB-435
  GI50: 1.81 µM
  TGI: 3.35 µM
MOLT-4 leukemia
  GI50: 2.01 µM
  TGI: 5.45 µM
NCI-H226 lung
  GI50: 12.9 µM
  TGI: 33.3 µM
NCI-H460 lung
  GI50: 5.49 µM
  TGI: 21.3 µM
NCI-H522 lung
  GI50: 1.74 µM
  TGI: 3.42 µM
NCI/ADR-RES ovarian
  GI50: 2.44 µM
  TGI: 7.45 µM
OVCAR-4 ovarian
  GI50: 1.74 µM
  TGI: 3.26 µM
OVCAR-5 ovarian
  GI50: 15 µM
  TGI: 31.5 µM
OVCAR-8 ovarian
  GI50: 2.66 µM
  TGI: 9.3 µM
PC-3 prostate
  GI50: 4.48 µM
  TGI: 17.5 µM
RPMI-8226 leukemia
  GI50: 2.08 µM
  TGI: 5.47 µM
RXF 393 renal
  GI50: 1.72 µM
  TGI: 3.15 µM
SF-268 CNS
  GI50: 14.4 µM
  TGI: 32.2 µM
SF-295 CNS
  GI50: 12.1 µM
  TGI: 25.5 µM
SF-539 CNS
  GI50: 3.91 µM
  TGI: 15.6 µM
SK-MEL-2 melanoma
  GI50: 6.33 µM
  TGI: 19.2 µM
SK-MEL-28 melanoma
  GI50: 2.6 µM
  TGI: 6.61 µM
SK-MEL-5 melanoma
  GI50: 9.63 µM
  TGI: 21.5 µM
SK-OV-3 ovarian
  GI50: 12.8 µM
  TGI: 42.9 µM
SN12C renal
  GI50: 4.28 µM
  TGI: 21.9 µM
SNB-19 CNS
  GI50: 14.4 µM
  TGI: 29.5 µM
SNB-75 CNS
  GI50: 10.9 µM
  TGI: 27.9 µM
SW-620 colon
  GI50: 1.42 µM
  TGI: 3 µM
TK-10 renal
  GI50: 3.96 µM
  TGI: 8.89 µM
U251 CNS
  GI50: 6.96 µM
  TGI: 21.1 µM
UACC-257 melanoma
  GI50: 2.05 µM
  TGI: 4.97 µM
UACC-62 melanoma
  GI50: 3.49 µM
  TGI: 13 µM
UO-31 renal
  GI50: 1.48 µM
  TGI: 2.81 µM
